These results are taken from patent US12612395B2, “Rocaglate derivatives and uses thereof” (TRUSTEES OF BOSTON UNIVERSITY, priority 2023, dated 2026).

For one series, the system named is GBM0308 non-CSCs. Nature of the series: Dose-response killing of GBM non-CSCs (PI/Hoechst, Celigo cytometer). The series is classed as cell-based. To be noted: for Emax: Homo sapiens; for Emax / Non-CSCs Max. observed efficacy (% dead cells): 72 h. An excerpt:
(§1) The inventors first evaluated a cohort of seven rocaglate translation inhibitors (1, 3-7, and 9, FIG. 1A and Table 1, compounds 2 and 8 were not tested due to unavailability). To assay for compounds that selectively affect GBM CSCs, the inventors employed the patient-derived tumor-initiating cell (TIC) cell line […] that forms neurospheres (consisting exclusively of tumor-initiating cells or CSCs) when cultured in neurobasal (NBE) medium. Upon exposure to serum and growth factor withdrawal, however, the cell line differentiates, acquires a flattened morphology, and forms a non-CSC population.^20 Thus, compounds can be tested in parallel to assess their effect on GBM CSCs vs. GBM non-CSCs as separate populations with a clean and robust response. This approach has been previously used to perform RNAi-based genetic screens to identify modulators of CSCs.^20 In this study, GBM0308 cells, cultured in stem cell conditions to form CSCs or in medium containing serum to induce differentiation into a non-CSC population, were treated in parallel with compounds at varying doses. Three days post-treatment, propidium iodide (PI) and Hoechst staining were performed and quantified using a Celigo image cytometer. Hoechst dye stained all […] nucleated cells, while PI exclusively stained dead cells. Cell viability and the percentage of cell death were then determined.
(§2) Cell Culture: Glioblastoma stem cell lines GBM0308, BT145, and BT112 were cultured in neurobasal (NBE medium) containing N-2 and B-27 supplements, EGF, bFGF, L-glutamine, and Penicillin-Streptomycin), as described previously.^19 Adherent GBM cells were cultured in serum-containing DMEM media (Invitrogen) supplemented with 10% fetal bovine serum (Corning Cellgro™). Cells were incubated at 37° C. and 5% CO2 to allow neurosphere formation. For seeding and subculturing, the neurospheres were gently trypsinized with 0.025% trypsin to form a single-cell suspension.
(§3) Dose-Response Testing in GBM Cells: Briefly, on day 1, cells were seeded in triplicate. For CSCs, 1500 cells/well were plated in a low attachment 96-well plate with NBE media and incubated for 3 days at 37° C. and 5% CO2 to allow the formation of neurospheres. For non-CSCs, 3000 cells/well were plated in a 96-well plate with DMEM media supplemented with 10% FBS. Similarly, the assay plates were also incubated for the same duration. Compound treatments started on day 4. Each compound was resuspended in DMSO and then diluted to different concentrations in media to a final concentration of DMSO less than 1%. The compounds were added at concentrations of 10, 3.3, 1.11, 0.37, 0.12, 0.041, 0.013, and 0.004 µM, respectively. DMSO-treated cells served as a control. After 72 h incubation with the compounds, fluorescent stains, propidium iodide, and Hoechst 33342 (Life Technologies, Carlsbad, CA), were used to stain the GBM cells to determine cell viability. A staining solution in 1×PBS was prepared by mixing PI and Hoechst 33342 to working concentrations of 2.5 μM and 20 μM, respectively. 20 μL of this staining solution was added per well, and plates were incubated at 37° C. and 5% CO2 for 60 min. After incubation, plates were read by Celigo imaging cytometer using an inbuilt Celigo application; Cell Viability (Dead+Total). For the viability measurement, the total number of neurospheres/cells and dead neurospheres/cells in each well were counted by the cytometer. The percentage of PI+ cells was normalized to DMSO and plotted against the drug concentration to calculate the EC50 with a four-parameter, variable-slope dose-response curve with an upper constraint of <100% dead cells and a lower constraint of =0% dead cells (GraphPad Prism v.10.0.0). For all dose response experiments, the experimental maximal efficacy (maximum observed % cell death) is reported. Relative EC50 values are reported for all compounds killing >50% of cells.

The test system of a further series is GBM0308 CSCs. Nature of the series: Dose-response killing of GBM CSCs (PI/Hoechst, Celigo cytometer). In kind it is cell-based.
Excerpt: as §1, §2, §3

[1] abbreviates: Table 7, cell line not given, read-out: Non-CSC Max. observed efficacy (% dead cells).
Where [2] appears, read: Homo sapiens, 72 h, Table 7, cell line not given, read-out: CSC Max. observed efficacy (% dead cells).
Where [3] appears, read: Homo sapiens, Table 7, cell line not given, read-out: CSC EC50.
Setting [4] is: Table 1, GBM0308 non-CSCs, up to 10 μM.
[5] abbreviates: Table 1, GBM0308 CSCs, 72 h, up to 10 μM.
[6] abbreviates: Table 1, GBM0308 CSCs, 72 h treatment, relative EC50, given for compounds causing at least 50% cell death, read-out: CSCs EC50.
The mark [7] stands for this setting: Table 2, GBM0308 non-CSCs, highest tested concentration 10 μM.
Where [8] appears, read: Table 2, GBM0308 CSCs, 72 h, highest tested concentration 10 μM.
Where [9] appears, read: Table 2, GBM0308 CSCs, 72 h treatment, relative EC50, read-out: CSCs EC50.
Setting [10] is: read-out: Non-CSCs Max. observed efficacy (% dead cells), Table 2, GBM0308 non-CSCs, highest tested concentration 10 μM.
Where [11] appears, read: Homo sapiens, 72 h, read-out: CSCs EC50 (μM), Table 2, GBM0308 CSCs, 72 h treatment, relative EC50.
The mark [12] stands for this setting: Homo sapiens, 72 h, read-out: CSCs Max. observed efficacy (% dead cells), Table 2, GBM0308 CSCs, 72 h, highest tested concentration 10 μM.
Where [13] appears, read: read-out: CSCs EC50, Table 2, GBM0308 CSCs, 72 h treatment, relative EC50.
The mark [14] stands for this setting: read-out: Non-CSC Max. observed efficacy (% dead cells), Table 7, cell line not given.
[15] abbreviates: Homo sapiens, 72 h, read-out: CSC Max. observed efficacy (% dead cells), Table 7, cell line not given.
Where [16] appears, read: Homo sapiens, read-out: CSC EC50 (μM), Table 7, cell line not given.

Where two headings read alike, the source gives them in different places. A value given as a limit tells only on which side of the number the result lay.

`COc1cc(OC)c2c(c1)O[C@@]1(c3ccc(Br)cc3)[C@H](c3ccccc3)[C@@H](C(=O)NS(=O)(=O)N(C)C)[C@@H](O)[C@@]21O` (racemic) [BUCMD747 (rac), (1R,2R,3S,3aR,8bS)-3a-(4-bromophenyl)-N-(N,N-dimethylsulfamoyl)-1,8b-dihydroxy-6,8-dimethoxy-3-phenyl-2,3,3a,8b-tetrahydro-1H-cyclopenta[b]benzofuran-2-carboxamide]: the values for the Emax with GBM0308 non-CSCs (setting [1]) and in the series with GBM0308 CSCs (setting [2]) were 27% and 89%, respectively. Also, the EC50 in the series with GBM0308 CSCs (setting [3]) was found to be 0.453 µM.
In the case of `COc1ccc([C@@]23Oc4cc(OC)cc(OC)c4[C@]2(O)[C@H](O)[C@H](C(=O)N(C)OC)[C@H]3c2ccccc2)cc1` (racemic) [rac-6, rohinitib, reference compound], in the series with GBM0308 non-CSCs (setting [4]), the “Non-CSCs Max. observed efficacy (% dead cells)” value is 25%. Further, in the series with GBM0308 CSCs (setting [5]), the “CSCs Max. observed efficacy (% dead cells)” value is reported as 81%. Further, the EC50 in the series with GBM0308 CSCs (setting [6]) was 0.922 µM.
Consider `COc1ccc([C@@]23Oc4cc(OC)cc(OC)c4[C@]2(O)[C@H](O)[C@H](C(=O)O)[C@H]3c2ccccc2)cc1` [(+)-10, rocaglaic acid], for which the “cytotoxic activity against non-CSCs, in words” value in the series on GBM0308 non-CSCs (GBM0308 non-CSCs) is given as “limited activity”. Besides, the “Non-CSCs Max. observed efficacy (% dead cells)” value with GBM0308 non-CSCs (setting [7]) is 30%. Further, in the series on GBM0308 CSCs (GBM0308 CSCs), the “cytotoxic activity against CSCs, in words” value is on record as “limited activity”. In the series on GBM0308 CSCs (setting [8]), the “CSCs Max. observed efficacy (% dead cells)” value is on record as 58%. Further, the EC50 with GBM0308 CSCs (setting [9]) is 7.08 µM.
For `COC(=O)[C@H]1[C@@H](O)[C@@]2(O)c3c(OC)cc(OC)cc3O[C@@]2(c2ccc(Br)cc2)[C@@H]1c1ccccc1` [(−)-9, reference compound], the “Non-CSCs Max. observed efficacy (% dead cells)” value in the series with GBM0308 non-CSCs (setting [4]) is listed as 25%. Besides, the “CSCs Max. observed efficacy (% dead cells)” value in the series on GBM0308 CSCs (setting [5]) is given as 88%. The EC50 in the series with GBM0308 CSCs (setting [6]) came out at 0.151 µM.
On to `COc1ccc([C@@]23Oc4cc(OC)cc(OC)c4[C@]2(O)[C@H](O)[C@H](C(=O)O)[C@H]3c2ccccc2)cc1` [(−)-10, rocaglaic acid], for which the “Non-CSCs Max. observed efficacy (% dead cells)” value in the series with GBM0308 non-CSCs (setting [7]) stood at 27%. The “CSCs Max. observed efficacy (% dead cells)” value with GBM0308 CSCs (setting [8]) is on record as 68%.
On to `COc1cc(OC)c2c(c1)O[C@@]1(c3ccc(Br)cc3)[C@H](c3ccccc3)[C@@H](C(=O)O)[C@@H](O)[C@@]21O` [(−)-11], for which the “Non-CSCs Max. observed efficacy (% dead cells)” value with GBM0308 non-CSCs (setting [7]) was found to be 25%. The “CSCs Max. observed efficacy (% dead cells)” value with GBM0308 CSCs (setting [8]) is recorded as 92%. The EC50 in the series on GBM0308 CSCs (setting [9]) stood at 0.121 µM.
Regarding `COc1ccc([C@@]23Oc4cc(OC)cc(OC)c4[C@]2(O)[C@H](O)[C@H](C(=O)NS(C)(=O)=O)[C@H]3c2ccccc2)cc1` [(−)-15, (1R,2R,3S,3aR,8bS)-1,8b-dihydroxy-6,8-dimethoxy-3a-(4-methoxyphenyl)-N-(methylsulfonyl)-3-phenyl-2,3,3a,8b-tetrahydro-1H-cyclopenta[b]benzofuran-2-carboxamide], the results for the Emax in the series on GBM0308 non-CSCs (setting [10]) and in the series with GBM0308 CSCs (setting [12]) were 19% and 85%, respectively. For the same molecule, the figures for the EC50 in the series with GBM0308 CSCs (setting [11]) and in the series on GBM0308 CSCs (setting [13]) were 1 to 10 µM and 0.98 µM, respectively.
Consider `COc1ccc([C@@]23Oc4cc(OC)cc(OC)c4[C@]2(O)[C@H](O)[C@H](C(=O)NS(=O)(=O)N(C)C)[C@H]3c2ccccc2)cc1` [(−)-16, (1R,2R,3S,3aR,8bS)—N—(N,N-dimethylsulfamoyl)-1,8b-dihydroxy-6,8-dimethoxy-3a-(4-methoxyphenyl)-3-phenyl-2,3,3a,8b-tetrahydro-1H-cyclopenta[b]benzofuran-2-carboxamide], for which the figures for the Emax in the series on GBM0308 non-CSCs (setting [10]) and in the series with GBM0308 CSCs (setting [12]) were 23% and 76%, respectively. The EC50 was 1 to 10 µM in the series on GBM0308 CSCs (setting [11]) and 1.73 µM with GBM0308 CSCs (setting [13]).
In the case of `COc1cc(OC)c2c(c1)O[C@@]1(c3ccc(Br)cc3)[C@H](c3ccccc3)[C@@H](C(=O)NS(C)(=O)=O)[C@@H](O)[C@@]21O` [(−)-19, (1R,2R,3S,3aR,8bS)-3a-(4-bromophenyl)-1,8b-dihydroxy-6,8-dimethoxy-N-(methylsulfonyl)-3-phenyl-2,3,3a,8b-tetrahydro-1H-cyclopenta[b]benzofuran-2-carboxamide], the Emax in the series with GBM0308 non-CSCs (setting [10]) came to 20%; in the series with GBM0308 CSCs (setting [12]) it was 92%. The EC50 in the series on GBM0308 CSCs (setting [11]) is 0.095 µM; with GBM0308 CSCs (Homo sapiens, read-out: CSC EC50, text, GBM0308 CSCs), below 0.125 µM.
On to `C#CCNS(=O)(=O)NC(=O)[C@H]1[C@@H](O)[C@@]2(O)c3c(OC)cc(OC)cc3O[C@@]2(c2ccc(Br)cc2)[C@@H]1c1ccccc1` [(−)-21, (1R,2R,3S,3aR,8bS)-3a-(4-bromophenyl)-1,8b-dihydroxy-6,8-dimethoxy-3-phenyl-N—(N-(prop-2-yn-1-yl)sulfamoyl)-2,3,3a,8b-tetrahydro-1H-cyclopenta[b]benzofuran-2-carboxamide], for which the Emax in the series on GBM0308 non-CSCs (setting [10]) turned out to be 27%; with GBM0308 CSCs (setting [12]) it was 92%. Besides, the EC50 with GBM0308 CSCs (setting [11]) was 0.016 µM.
On to `COc1cc(OC)c2c(c1)O[C@@]1(c3ccc(Br)cc3)[C@H](c3ccccc3)[C@@H](C(=O)NS(=O)(=O)N(C)C)[C@@H](O)[C@@]21O` [BUCMD790 (—), (1R,2R,3S,3aR,8bS)-3a-(4-bromophenyl)-N-(N,N-dimethylsulfamoyl)-1,8b-dihydroxy-6,8-dimethoxy-3-phenyl-2,3,3a,8b-tetrahydro-1H-cyclopenta[b]benzofuran-2-carboxamide], for which the Emax in the series on GBM0308 non-CSCs (setting [1]) amounted to 26%; with GBM0308 CSCs (setting [2]), 93%. In the series on GBM0308 CSCs (setting [3]), the concentration giving a half-maximal response (EC50) was found to be 0.045 µM.
As for `COc1cc(OC)c2c(c1)O[C@@]1(c3ccc(C(F)(F)F)cc3)[C@H](c3ccccc3)[C@@H](C(=O)NS(=O)(=O)N(C)C)[C@@H](O)[C@@]21O` [ZW-12-29, (1R,2R,3S,3aR,8bS)—N—(N,N-dimethylsulfamoyl)-1,8b-dihydroxy-6,8-dimethoxy-3-phenyl-3a-(4-(trifluoromethyl)phenyl)-2,3,3a,8b-tetrahydro-1H-cyclopenta[b]benzofuran-2-carboxamide], the Emax in the series on GBM0308 non-CSCs (setting [14]) came to 26%; with GBM0308 CSCs (setting [15]), 57%. Moreover, the EC50 with GBM0308 CSCs (setting [16]) stood at 5.63 µM.
As for `COc1cc(OC)c2c(c1)O[C@@]1(c3ccc(C#N)cc3)[C@H](c3ccccc3)[C@@H](C(=O)NS(=O)(=O)N(C)C)[C@@H](O)[C@@]21O` [ZW-12-30, (1R,2R,3S,3aR,8bS)-3a-(4-cyanophenyl)-N—(N,N-dimethylsulfamoyl)-1,8b-dihydroxy-6,8-dimethoxy-3-phenyl-2,3,3a,8b-tetrahydro-1H-cyclopenta[b]benzofuran-2-carboxamide], the values for the Emax in the series with GBM0308 non-CSCs (setting [14]) and with GBM0308 CSCs (setting [15]) were 21% and 94%, respectively. In the series with GBM0308 CSCs (setting [16]), the EC50 was 0.632 µM.
